Experimental data: PubChem BioAssay AID2060495 (Molecular Pharmacology Branch, DTP, NCI, 2025)

Test system: 521955-158-R2-J5-PDC complex spheroid viability
Assay: Anticancer human tumor 521955-158-R2-J5-PDC patient-derived pancreatic carcinoma cell line growth inhibition [GQUAD]
Details: for IC50: curve of first compound; for viability, T/C: stronger effect = lower value
Source text: DNA G-quadruplex Stabilizer Agents in Combinations in Complex Spheroids
A high-throughput screen of multi-cell type tumor spheroids was designed to identify active combinations of DNA G-quadruplex stabilizer agents and targeted small molecules. Complex spheroids include a stromal component modeled by human endothelial cells (HUVEC) and fibroblasts modeled by human mesenchymal stem cells (MSCs). The concentration ranges selected for each drug and investigational agent were based upon clinically achievable concentrations if the clinical Cmax of the agent was known.
Compounds. The drugs and investigational agents: pidnarulex (CX-5461; NSC782164), APTO-253 (NSC789042), BRACO-19 (NSC847499), peposertib (NSC802822), ceralasertib (NSC780249), elimusertib (NSC800525), camonsertib (NSC841442), AZD-1390 (NSC803789), olaparib (NSC753686), talazoparib (NSC767125), ART-558 (NSC835418), sotorasib (NSC818433), MRTX-1133 (NSC836407), SN-38 (NSC673596), topotecan (NSC609699), etoposide (NSC141540), doxorubicin (NSC123127), gemcitabine (NSC613327), 5-fluorouracil (NSC19893), paclitaxel (NSC125973), vemurafenib (NSC761431), panobinostat (NSC761190), R-306465 (JNJ-16241199; NSC773264), adavosertib (NSC754352), TP-3654 (NSC805149), carboplatin (NSC241240), KSQ-4279 (NSC840948), and staurosporine (NSC755774) were obtained from the National Cancer Institute (NCI) Developmental Therapeutics Program Chemical Repository (34). The FDA-approved anticancer drug set is available from the NCI Developmental Therapeutics Program. […] The stock solutions were prepared in dimethyl sulfoxide (DMSO, Sigma-Aldrich, St. Louis, MO, cat. D2650) at 800-fold the tested concentration and stored at -70 degrees C prior to their use. All drugs and investigational agents were tested over a range starting from a high concentration at or near the clinical Cmax and decreasing in half-log increments. If the clinical Cmax for an agent had not been determined, the highest concentration tested was 10 microM.
2.3 Cell Culture. All cells were maintained in an incubator at 37 degrees C and 5% CO2 with 95% humidity. The PDC lines were cultured according to standard operating procedures established by the NCI PDMR. All PDCs were thawed and cultured in Matrigel-coated flasks prepared with a working solution of 1X Ham's F-12 nutrient mix, without supplementation (Invitrogen, cat. 11765054), 100 U/mL penicillin-streptomycin (Invitrogen, cat. 15140122), and 2.5% Matrigel (Corning Inc., cat. 354248) for the first three passages. The 857933-349-R-J2-PDC line was cultured in 6C/Colon 1B media, which includes advanced DMEM/F-12 (Thermo Fisher Scientific, cat. 12634028), 10 mM HEPES (Thermo Fisher Scientific, cat. 15630080), 1X GlutaMAX supplement (Thermo Fisher Scientific, cat. 35050061), 0.1 mg/mL primocin (InvivoGen, cat. ant-pm-2), 10% defined fetal bovine serum, heat inactivated (HyClone Laboratories Inc., cat. SH30070.03HI), 50% L-WRN conditioned media (ATCC, cat. CRL-3276), 1.25 mM N-Acetyl-L-cysteine (Sigma-Aldrich, cat. A9165), 10 mM nicotinamide (Sigma-Aldrich, cat. N0636), 1X B-27 supplement (Thermo Fisher Scientific, cat. 17504044), 1X N-2 supplement (Thermo Fisher Scientific, cat. 17502048), 10 microM Y-27632 dihydrochloride (Tocris Bioscience, cat. 1254), and 50 ng/mL human EGF recombinant protein (Thermo Fisher Scientific, cat. PHG0311). The 485176-168-R4-J1-PDC line was cultured in Panc media, which includes all 6C/Colon 1B media components plus 100 ng/mL human FGF-10 (Thermo Fisher Scientific, cat. 100-26), 500 nM SB-431542 (Selleckchem, cat. S1067), and gastrin (Tocris, cat. 3006).
[…]
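Further: spheroids exposed to agents for one week before reading.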
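Wherever viability, T/C is given: 100% = DMSO vehicle control viability.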

IC50 (second compound 0.0316 µM): 233 nM
IC50 (second compound 0.1 µM): 167 nM
IC50 (second compound 0.316 µM): < 31.6 nM
IC50 (second compound 1 µM): < 31.6 nM
IC50 (second compound 3.16 µM): < 31.6 nM
IC50 (second compound 10 µM): < 31.6 nM
SMILES: O=C(NO)c1cnc(N2CCN(S(=O)(=O)c3ccc4ccccc4c3)CC2)nc1 + Cc1cnc(CNC(=O)c2c(=O)c3ccc(N4CCCN(C)CC4)nc3n3c2sc2ccccc23)cn1
viability, T/C (second compound 0.0316 µM, first compound 0.0316 µM): 106%
viability, T/C (second compound 0.0316 µM, first compound 0.1 µM): 78.9%
viability, T/C (second compound 0.0316 µM, first compound 0.316 µM): 42.1%
viability, T/C (second compound 0.0316 µM, first compound 1 µM): 5.64%
viability, T/C (second compound 0.0316 µM, first compound 3.16 µM): 0.04%
viability, T/C (second compound 0.0316 µM, first compound 10 µM): 0.1%
viability, T/C (second compound 0.1 µM, first compound 0.0316 µM): 53.6%
viability, T/C (second compound 0.1 µM, first compound 0.1 µM): 51.4%
viability, T/C (second compound 0.1 µM, first compound 0.316 µM): 47%
viability, T/C (second compound 0.1 µM, first compound 1 µM): 6.79%
viability, T/C (second compound 0.1 µM, first compound 3.16 µM): 0.05%
viability, T/C (second compound 0.1 µM, first compound 10 µM): 0.08%
viability, T/C (second compound 0.316 µM, first compound 0.0316 µM): 27.5%
viability, T/C (second compound 0.316 µM, first compound 0.1 µM): 36.1%
viability, T/C (second compound 0.316 µM, first compound 0.316 µM): 29.8%
viability, T/C (second compound 0.316 µM, first compound 1 µM): 1.02%
viability, T/C (second compound 0.316 µM, first compound 3.16 µM): 0.05%
viability, T/C (second compound 0.316 µM, first compound 10 µM): 0.07%
viability, T/C (second compound 1 µM, first compound 0.0316 µM): 20.1%
viability, T/C (second compound 1 µM, first compound 0.1 µM): 22.9%
viability, T/C (second compound 1 µM, first compound 0.316 µM): 12.9%
viability, T/C (second compound 1 µM, first compound 1 µM): 0.1%
viability, T/C (second compound 1 µM, first compound 3.16 µM): 0.04%
viability, T/C (second compound 1 µM, first compound 10 µM): 0.08%
viability, T/C (second compound 3.16 µM, first compound 0.0316 µM): 11.7%
viability, T/C (second compound 3.16 µM, first compound 0.1 µM): 17.4%
viability, T/C (second compound 3.16 µM, first compound 0.316 µM): 4.19%
viability, T/C (second compound 3.16 µM, first compound 1 µM): 0.1%
viability, T/C (second compound 3.16 µM, first compound 3.16 µM): 0.07%
viability, T/C (second compound 3.16 µM, first compound 10 µM): 0.11%
viability, T/C (second compound 10 µM, first compound 0.0316 µM): 11.8%
viability, T/C (second compound 10 µM, first compound 0.1 µM): 8.03%
viability, T/C (second compound 10 µM, first compound 0.316 µM): 2.82%
viability, T/C (second compound 10 µM, first compound 1 µM): 0.14%
viability, T/C (second compound 10 µM, first compound 3.16 µM): 0.15%
viability, T/C (second compound 10 µM, first compound 10 µM): 0.18%
